Columns and labels:
[1] = tested on: SNP0006 (flexneri 6, parent CCH060); test: antibiotic sensitivity of mSBA target strain SNP0006; type: cell-based, Shigella flexneri; conditions: strain SNP0006 (flexneri 6)
Excerpt: (§1) Strains 2457T (S. flexneri 2a) and SNP0006 (S. flexneri 6) were made resistant to streptomycin and nalidixic acid, respectively, by natural selection as previously described (Burton, R. L. and M. H. Nahm, “Development and validation of a fourfold multiplexed opsonization assay (MOPA4) for pneumococcal antibodies”, Clin Vaccine Immunol, 2006. 13(9): p. 1004-9). Strain J17B (S. flexneri 3a) was made kanamycin resistant by transduction with a nadC:kan fusion gene with P1 phage (Prunier, A. L., et al., “Genetic structure of the nadA and nadB antivirulence loci in Shigella spp.”, J Bacteriol, 2007. 189(17): p. 6482-6), which was obtained from a S. flexneri 2a strain (BS655) (personal communication with Dr. C. Turnbough at UAB).
(§2) To prepare working stocks for the target strains, primary stocks were streaked onto blood agar plates and incubated at 37° C./5% CO2. After overnight culture, multiple colonies were transferred to liquid culture medium (Todd-Hewitt broth with 0.5% yeast extract) and grown at 37° C. until cultures reached an OD600 of 0.5-1.4. After reaching the desired OD, glycerol was added to a final concentration of 16%, and 0.5-ml aliquots were prepared and stored at ≤−60° C. until needed. Each WS was tested to confirm the antibiotic sensitivity/resistance profile and to determine the optimal dilution of bacteria to use for the assay.
(§3) All target strains were tested individually in assay conditions for growth on plates containing antibiotics.

[2] = tested on: SNP0004 (flexneri 3a, parent J17B); test: antibiotic sensitivity of mSBA target strain SNP0004; type: cell-based, Shigella flexneri; conditions: strain SNP0004 (flexneri 3a)
Excerpt: as §1, §2, §3

S. sonnei strain Moseley = type: cell-based, Shigella sonnei; conditions: for Antibiotic Sensitivity: strain Moseley (sonnei); for antibiotic resistance screening: strain Moseley, natural resistance
Excerpt: as §1, §2, §3

[3] = tested on: SNP0001 (flexneri 2a, parent 2457T); test: antibiotic sensitivity of mSBA target strain SNP0001; type: cell-based, Shigella flexneri; conditions: strain SNP0001 (flexneri 2a)
Excerpt: as §1, §2, §3

| Compound | Antibiotic Sensitivity [1] | Antibiotic Sensitivity [2] | Antibiotic Sensitivity (S. sonnei strain Moseley) | Antibiotic Sensitivity [3] | antibiotic resistance screening (S. sonnei strain Moseley) |
| --- | --- | --- | --- | --- | --- |
| NC[C@H]1O[C@H](O[C@H]2[C@H](O)[C@@H](O[C@H]3O[C@H](CO)[C@@H](O)[C@H](N)[C@H]3O)[C@H](N)C[C@@H]2N)[C@H](O)[C@@H](O)[C@@H]1O [Kan, kanamycin] | S | R | S | S | – |
| [H]/N=C(/N)N[C@H]1[C@H](O)[C@@H](O)[C@H](O[C@@H]2O[C@@H](C)[C@](O)(C=O)[C@H]2O[C@@H]2O[C@@H](CO)[C@H](O)[C@@H](O)[C@@H]2NC)[C@@H](N/C(N)=N\[H])[C@@H]1O [Strep, streptomycin] | S | S | S | R | sensitive |
| C[C@H]1c2cccc(O)c2C(O)=C2C(=O)[C@]3(O)C(O)=C(C(N)=O)C(=O)[C@@H](N(C)C)[C@@H]3[C@@H](O)[C@@H]21 [Dox, doxycycline] | S | S | R | S | naturally resistant |
| CCn1cc(C(=O)O)c(=O)c2ccc(C)nc21 [NA, nalidixic acid] | R | S | S | S | sensitive |

Source: patent publication US20250327110A1, “HIGH THROUGHPUT MULTIPLEXED SERUM BASED BACTERICIDAL ASSAYS (SBAs), AND KITS FOR USE THEREIN” (priority 2024, published 2025)
